# Test results reported in patent publication US11214561B2, “Histone methyltransferase EZH2 inhibitor, preparation method and pharmaceutical use thereof” (ANCUREALL PHARMACEUTICAL (SHANGHAI) CO., LTD., priority 2017, dated 2022).
# Assays:
# SU-DHL-8 (EZH2 WT) = test: In vitro 50% growth inhibition (GI50), MTT/CCK8, SU-DHL-8 cells; assay type: cell-based; conditions: Homo sapiens, SU-DHL-8, 144 h; Drug treatment for 6 days
# From the text: (§1) In the present invention, a representative tumor cell line was selected to determine the cell growth inhibition activity of the present compound. Cell culture conditions and methods were in accordance with the requirements for each cell lines. The cells were subcultured in vitro for less than 3 generations each time, and as required, monoclone purification and identification of cell lines could be carried out.
# (§2) The cell culture media used were RPMI1640 (Gibco) comprising 5-20% of fetal bovine serum (Gibco), 1% of double-antibiotic and 2 mM of glutamine.
# (§3) Suspension culture cells were collected by centrifugation (1700 rpm, 3 minutes), and the supernatant was discarded and the cells were counted. According to each cell growth cycle, different concentrations of cells were prepared (1-10×10^4 cells per ml) and added to 96-well plates (Corning) with 100 μl per well, and then incubated overnight at 37° C., 5% CO2. The next day, the test compound was added to the cultured cells (2 wells in parallel). The final concentration of the solvent was less than 1/1,000. The cells were further cultured for 6 to 12 days and assayed by MTT.
# (§4) The compound was stored at a concentration of 10 mM at −20° C. and diluted to two-fold or 10-fold series prior to use.
# (§5) For the suspension culture cells, CCK8 was directly added to 10% of the final concentration. The cells were continually incubated for […].
# (§6) The experiments were repeated 3 times and a statistical analysis of data was conducted.
# Pfeiffer (EZH2 A677G) = test: In vitro 50% growth inhibition (GI50), MTT/CCK8, Pfeiffer cells; assay type: cell-based, Human; conditions: for growth inhibitory activity / GI50 level against Pfeiffer, in words: EZH2 A677G mutant cells Pfeiffer; for GI50: Homo sapiens, Pfeiffer, 240 h, Drug treatment for 10 days
# From the text: as §1, §2, §3, §4, §5, §6
# Karpas-422 (EZH2 Y641N) = test: In vitro 50% growth inhibition (GI50), MTT/CCK8, Karpas-422 cells; assay type: cell-based; conditions: Homo sapiens, KARPAS-422, 144 h; Drug treatment for 6 days
# From the text: as §1, §2, §3, §4, §5, §6
SMILES,GI50 (SU-DHL-8 (EZH2 WT)) [nM],"growth inhibitory activity / GI50 level against Pfeiffer, in words (Pfeiffer (EZH2 A677G))",GI50 (Pfeiffer (EZH2 A677G)) [nM],GI50 (Karpas-422 (EZH2 Y641N)) [nM]
"C=CC(=O)N1CCC(N(CC)c2cc(-c3ccc(CN4CCC(OC)CC4)cc3)cc(C(=O)NCc3c(C)cc(C)[nH]c3=O)c2C)CC1 [Example 65, N-(4,6-dimethyl-2-oxo-1,2-dihydro-pyridin-3-ylmethyl)-5-[(1-acryloyl-piperidin-4-yl)-ethyl-amino]-4-methyl-4′-(4-methoxypiperidin-1-ylmethyl)-[1,1′-biphenyl]-3-carboxamide]",> 1000,subnanomolar level,< 1,10 to 100
"C=CC(=O)N1CCC(N(CC)c2cc(-c3cccc(CN4CCOCC4)c3)cc(C(=O)NCc3c(C)cc(C)[nH]c3=O)c2C)CC1 [Example 70, N-(4,6-dimethyl-2-oxo-1,2-dihydro-pyridin-3-ylmethyl)-5-[(1-acryloyl-piperidin-4-yl)-ethyl-amino]-4-methyl-3′-(morpholin-4-ylmethyl)-[1,1′-biphenyl]-3-carboxamide]",> 1000,,1 to 10,10 to 100
"C=CC(=O)N1CCC(N(CC)c2cc(-c3ccc(CN4CCOCC4)c(Cl)c3)cc(C(=O)NCc3c(C)cc(C)[nH]c3=O)c2C)CC1 [Example 71, N-(4,6-dimethyl-2-oxo-1,2-dihydro-pyridin-3-ylmethyl)-5-[(1-acryloyl-piperidin-4-yl)-ethyl-amino]-3′-chloro-4-methyl-4′-(morpholin-4-ylmethyl)-[1,1′-biphenyl]-3-carboxamide]",> 1000,,1 to 10,10 to 100
"C=CC(=O)N1CCC(N(CC)c2cc(-c3cccc(CN4CCCN(C)CC4)c3)cc(C(=O)NCc3c(C)cc(C)[nH]c3=O)c2C)CC1 [Example 75, N-(4,6-dimethyl-2-oxo-1,2-dihydro-pyridin-3-ylmethyl)-5-[(1-acryloyl-piperidin-4-yl)-ethyl-amino]-4-methyl-3′-(4-methylhomopiperazin-1-ylmethyl)-[1,1′-biphenyl]-3-carboxamide]",> 1000,,1 to 10,10 to 100
"C=CC(=O)N1CCC(N(CC)c2cc(-c3ccc(CN4CC(OC)C4)cc3)cc(C(=O)NCc3c(C)cc(C)[nH]c3=O)c2C)CC1 [Example 76, N-(4,6-dimethyl-2-oxo-1,2-dihydro-pyridin-3-ylmethyl)-5-[(1-acryloyl-piperidin-4-yl)-ethyl-amino]-4-methyl-4′-(3-methoxy-1-azetidinylmethyl)-[1,1′-biphenyl]-3-carboxamide]",> 1000,,1 to 10,10 to 100
"C=CC(=O)N1CCC(N(CC)c2cc(-c3ccc(CN4CCC(OCCOC)CC4)cc3)cc(C(=O)NCc3c(C)cc(C)[nH]c3=O)c2C)CC1 [Example 77, N-(4,6-dimethyl-2-oxo-1,2-dihydro-pyridin-3-ylmethyl)-5-[(1-acryloyl-piperidin-4-yl)-ethyl-amino]-4-methyl-4′-[4-(2-methoxyethyloxy)-piperidin-1-ylmethyl]-[1,1′-biphenyl]-3-carboxamide]",> 1000,subnanomolar level,< 1,10 to 100
C=CC(=O)N1CCC(N(CC)c2cc(-c3ccc(CN4CCC(N5CCOCC5)CC4)cc3)cc(C(=O)NCc3c(C)cc(C)[nH]c3=O)c2C)CC1 [Example 81],> 1000,,1 to 10,10 to 100
"C=CC(=O)N1CCC(N(CC)c2cc(-c3ccc(CN4CCC5(CCCO5)CC4)cc3)cc(C(=O)NCc3c(C)cc(C)[nH]c3=O)c2C)CC1 [Example 87, N-(4,6-dimethyl-2-oxo-1,2-dihydro-pyridin-3-ylmethyl)-5-[(1-acryloyl-piperidin-4-yl)-ethyl-amino]-4-methyl-4′-(1-oxa-8-aza-spiro[4.5]decan-8-ylmethyl)-[1,1′-biphenyl]-3-carboxamide]",> 1000,subnanomolar level,< 1,10 to 100
"C=CC(=O)N1CCC(N(CC)c2cc(-c3ccc(CN4CCC(OCC)CC4)cc3)cc(C(=O)NCc3c(C)cc(C)[nH]c3=O)c2C)CC1 [Example 88, N-(4,6-dimethyl-2-oxo-1,2-dihydro-pyridin-3-ylmethyl)-5-[(1-acryloyl-piperidin-4-yl)-ethyl-amino]-4-methyl-4′-(4-ethoxypiperidin-1-ylmethyl)-[1,1′-biphenyl]-3-carboxamide]",> 1000,subnanomolar level,< 1,10 to 100
"C=CC(=O)N1CCC(N(CC)c2cc(-c3ccc(CN4CCN(C5CCOCC5)CC4)cc3)cc(C(=O)NCc3c(C)cc(C)[nH]c3=O)c2C)CC1 [Example 89, N-(4,6-dimethyl-2-oxo-1,2-dihydro-pyridin-3-ylmethyl)-5-[(1-acryloyl-piperidin-4-yl)-ethyl-amino]-4-methyl-4′-[4-(tetrahydropyran-4-yl)-piperazin-1-ylmethyl]-[1,1′-biphenyl]-3-carboxamide]",> 1000,subnanomolar level,< 1,10 to 100
